Assay results reported in patent US9693556B2, “Herbicidal pyridazinone derivatives” (SYNGENTA LIMITED, priority 2011, dated 2017).

Key:
Format in all cases: in vivo
[1] = test system: Alopecurus myosuroides (ALOMY); experiment: Pre-emergence herbicidal glasshouse test on Alopecurus myosuroides; conditions: pre-emergence; 1000 g/h; evaluated after 13 days
Summary of the method: (§1)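 Read-out: percentage herbicidal damage 13 days after spraying, given on a five-point scale (5=80-100%, 4=60-79%, 3=40-59%, 2=20-39%, 1=0-19%). Pots of standard soil; application at 1000 g/h, one day post-sowing for pre-emergence, eight days for post-emergence.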

Setaria faberi (SETFA) [2] = experiment: Pre-emergence herbicidal glasshouse test on Setaria faberi; conditions: pre-emergence; 1000 g/h; evaluated after 13 days
Summary of the method: as §1

[3] = test system: Echinochloa crus-galli (ECHCG); experiment: Pre-emergence herbicidal glasshouse test on Echinochloa crus-galli; conditions: pre-emergence; 1000 g/h; evaluated after 13 days
Summary of the method: as §1

Solanum nigrum (SOLNI) [4] = experiment: Pre-emergence herbicidal glasshouse test on Solanum nigrum; conditions: pre-emergence; 1000 g/h; evaluated after 13 days
Summary of the method: as §1

[5] = test system: Amaranthus retoflexus (AMARE); experiment: Pre-emergence herbicidal glasshouse test on Amaranthus retoflexus; conditions: pre-emergence; 1000 g/h; evaluated after 13 days
Summary of the method: as §1

[6] = test system: Ipomoea hederacea (IPOHE); experiment: Pre-emergence herbicidal glasshouse test on Ipomoea hederacea; conditions: pre-emergence; 1000 g/h; evaluated after 13 days
Summary of the method: as §1

[7] = test system: Alopecurus myosuroides (ALOMY); experiment: Post-emergence herbicidal glasshouse test on Alopecurus myosuroides; conditions: post-emergence; 1000 g/h; evaluated after 13 days
Summary of the method: as §1

Setaria faberi (SETFA) [8] = experiment: Post-emergence herbicidal glasshouse test on Setaria faberi; conditions: post-emergence; 1000 g/h; evaluated after 13 days
Summary of the method: as §1

[9] = test system: Echinochloa crus-galli (ECHCG); experiment: Post-emergence herbicidal glasshouse test on Echinochloa crus-galli; conditions: post-emergence; 1000 g/h; evaluated after 13 days
Summary of the method: as §1

Solanum nigrum (SOLNI) [10] = experiment: Post-emergence herbicidal glasshouse test on Solanum nigrum; conditions: post-emergence; 1000 g/h; evaluated after 13 days
Summary of the method: as §1

[11] = test system: Amaranthus retoflexus (AMARE); experiment: Post-emergence herbicidal glasshouse test on Amaranthus retoflexus; conditions: post-emergence; 1000 g/h; evaluated after 13 days
Summary of the method: as §1

[12] = test system: Ipomoea hederacea (IPOHE); experiment: Post-emergence herbicidal glasshouse test on Ipomoea hederacea; conditions: post-emergence; 1000 g/h; evaluated after 13 days
Summary of the method: as §1

SMILES	PRE Application ALOMY herbicidal damage (five point scale) [1]	PRE Application SETFA herbicidal damage (five point scale) (Setaria faberi (SETFA) [2])	PRE Application ECHCG herbicidal damage (five point scale) [3]	PRE Application SOLNI herbicidal damage (five point scale) (Solanum nigrum (SOLNI) [4])	PRE Application AMARE herbicidal damage (five point scale) [5]	PRE Application IPOHE herbicidal damage (five point scale) [6]	POST Application ALOMY herbicidal damage (five point scale) [7]	POST Application SETFA herbicidal damage (five point scale) (Setaria faberi (SETFA) [8])	POST Application ECHCG herbicidal damage (five point scale) [9]	POST Application SOLNI herbicidal damage (five point scale) (Solanum nigrum (SOLNI) [10])	POST Application AMARE herbicidal damage (five point scale) [11]	POST Application IPOHE herbicidal damage (five point scale) [12]
Cn1ncc(-c2ccc(C(F)(F)F)nc2O)c(O)c1=O [Compound 4.006]	1 (1=0-19% damage)	1 (1=0-19% damage)	1 (1=0-19% damage)	1 (1=0-19% damage)	1 (1=0-19% damage)	1 (1=0-19% damage)	1 (1=0-19% damage)	1 (1=0-19% damage)	1 (1=0-19% damage)	4 (4=60-79% damage)	3 (3=40-59% damage)	2 (2=20-39% damage)
Cn1ncc(-c2ccc(C(F)(F)F)nc2Oc2ccccc2)c(O)c1=O [Compound 4.008]	1 (1=0-19% damage)	1 (1=0-19% damage)	1 (1=0-19% damage)	1 (1=0-19% damage)	5 (5=80-100% damage)	1 (1=0-19% damage)	1 (1=0-19% damage)	2 (2=20-39% damage)	2 (2=20-39% damage)	5 (5=80-100% damage)	5 (5=80-100% damage)	4 (4=60-79% damage)
Cn1ncc(-c2ccc(C(F)(F)F)nc2OCc2cccc(Cl)c2)c(O)c1=O [Compound 4.009]	1 (1=0-19% damage)	1 (1=0-19% damage)	1 (1=0-19% damage)	1 (1=0-19% damage)	3 (3=40-59% damage)	1 (1=0-19% damage)	1 (1=0-19% damage)	1 (1=0-19% damage)	1 (1=0-19% damage)	5 (5=80-100% damage)	4 (4=60-79% damage)	1 (1=0-19% damage)
Cn1ncc(-c2cccnc2OCC(F)F)c(O)c1=O [Compound 4.011]	1 (1=0-19% damage)	1 (1=0-19% damage)	1 (1=0-19% damage)	1 (1=0-19% damage)	1 (1=0-19% damage)	1 (1=0-19% damage)	1 (1=0-19% damage)	1 (1=0-19% damage)	1 (1=0-19% damage)	5 (5=80-100% damage)	4 (4=60-79% damage)	3 (3=40-59% damage)
Cn1ncc(-c2ccc(C(F)(F)F)nc2Cl)c(O)c1=O [Compound 4.014]	1 (1=0-19% damage)	1 (1=0-19% damage)	5 (5=80-100% damage)	4 (4=60-79% damage)	5 (5=80-100% damage)	2 (2=20-39% damage)	1 (1=0-19% damage)	2 (2=20-39% damage)	3 (3=40-59% damage)	5 (5=80-100% damage)	5 (5=80-100% damage)	5 (5=80-100% damage)
Cn1ncc(-c2ccc(C(F)(F)F)nc2C#N)c(O)c1=O [Compound 4.015]	1 (1=0-19% damage)	1 (1=0-19% damage)	1 (1=0-19% damage)	1 (1=0-19% damage)	1 (1=0-19% damage)	1 (1=0-19% damage)	1 (1=0-19% damage)	1 (1=0-19% damage)	1 (1=0-19% damage)	1 (1=0-19% damage)	1 (1=0-19% damage)	1 (1=0-19% damage)
Cn1ncc(-c2ccc(C(F)(F)F)nc2S(=O)(=O)N2CCOCC2)c(O)c1=O [Compound 4.016]	5 (5=80-100% damage)	5 (5=80-100% damage)	5 (5=80-100% damage)	5 (5=80-100% damage)	5 (5=80-100% damage)	5 (5=80-100% damage)	5 (5=80-100% damage)	5 (5=80-100% damage)	5 (5=80-100% damage)	5 (5=80-100% damage)	5 (5=80-100% damage)	5 (5=80-100% damage)
CC(C)N(C)S(=O)(=O)c1nc(C(F)(F)F)ccc1-c1cnn(C)c(=O)c1O [Compound 4.017]	4 (4=60-79% damage)	4 (4=60-79% damage)	5 (5=80-100% damage)	5 (5=80-100% damage)	5 (5=80-100% damage)	5 (5=80-100% damage)	5 (5=80-100% damage)	5 (5=80-100% damage)	5 (5=80-100% damage)	5 (5=80-100% damage)	5 (5=80-100% damage)	5 (5=80-100% damage)
CCn1ncc(-c2cc3cccnc3nc2C(F)(F)F)c(O)c1=O [Compound 5.001]	5 (5=80-100% damage)	5 (5=80-100% damage)	5 (5=80-100% damage)	5 (5=80-100% damage)	5 (5=80-100% damage)	5 (5=80-100% damage)	5 (5=80-100% damage)	5 (5=80-100% damage)	5 (5=80-100% damage)	5 (5=80-100% damage)	5 (5=80-100% damage)	5 (5=80-100% damage)
